Columns and labels:
Assay in all cases: relative viability (nuclei count vs DMSO), 5 days (fraction); higher = more cells survive
[1] = compound: COc1cc2nc(N3CCCN(C)CC3)nc(NC3CCN(Cc4ccccc4)CC3)c2cc1OC + Cc1nc(Nc2ncc(C(=O)Nc3c(C)cccc3Cl)s2)cc(N2CCN(CCO)CC2)n1 [Dasatinib] (partner 0.075 µM)
In short: (§1)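 Lung cancer cell lines in 1536-well plates were dosed by pin tool the day after seeding, either with one drug alone or with a fixed anchor-drug dose plus five library-drug doses (not always all listed) in √10 steps. After 5 days, cells were fixed and their nuclei stained in one step (final 0.05% Triton X-100, 1% formaldehyde, 1 ug/ml Hoechst), then counted on 4× images. Relative viability is the nuclei count in treated wells divided by that in vehicle wells. Values are medians of duplicate plates.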

AZD6482 + Trametinib = compound: Cc1cc([C@@H](C)Nc2ccccc2C(=O)O)c2nc(N3CCOCC3)cc(=O)n2c1 [AZD6482] + CC(=O)Nc1cccc(-n2c(=O)n(C3CC3)c(=O)c3c(Nc4ccc(I)cc4F)n(C)c(=O)c(C)c32)c1 [Trametinib] (partner 0.02 µM)
In short: as §1

AZD6482 + Foretinib = compound: Cc1cc([C@@H](C)Nc2ccccc2C(=O)O)c2nc(N3CCOCC3)cc(=O)n2c1 [AZD6482] + COc1cc2c(Oc3ccc(NC(=O)C4(C(=O)Nc5ccc(F)cc5)CC4)cc3F)ccnc2cc1OCCCN1CCOCC1 [Foretinib] (partner 0.25 µM)
In short: as §1

AZD6482 + Pictilisib = compound: Cc1cc([C@@H](C)Nc2ccccc2C(=O)O)c2nc(N3CCOCC3)cc(=O)n2c1 [AZD6482] + CS(=O)(=O)N1CCN(Cc2cc3nc(-c4cccc5[nH]ncc45)nc(N4CCOCC4)c3s2)CC1 [Pictilisib] (partner 1 µM)
In short: as §1

Cell Line | relative viability ([1]; first compound 0.2 µM) | relative viability ([1]; first compound 0.6325 µM) | relative viability ([1]; first compound 2 µM) | relative viability ([1]; first compound 6.325 µM) | relative viability (AZD6482 + Trametinib; first compound 0.08 µM) | relative viability (AZD6482 + Trametinib; first compound 0.253 µM) | relative viability (AZD6482 + Trametinib; first compound 0.8 µM) | relative viability (AZD6482 + Trametinib; first compound 2.53 µM) | relative viability (AZD6482 + Trametinib; first compound 8 µM) | relative viability (AZD6482 + Foretinib; first compound 0.08 µM) | relative viability (AZD6482 + Foretinib; first compound 0.253 µM) | relative viability (AZD6482 + Foretinib; first compound 0.8 µM) | relative viability (AZD6482 + Foretinib; first compound 2.53 µM) | relative viability (AZD6482 + Foretinib; first compound 8 µM) | relative viability (AZD6482 + Pictilisib; first compound 0.08 µM) | relative viability (AZD6482 + Pictilisib; first compound 0.253 µM) | relative viability (AZD6482 + Pictilisib; first compound 0.8 µM) | relative viability (AZD6482 + Pictilisib; first compound 2.53 µM) | relative viability (AZD6482 + Pictilisib; first compound 8 µM)
LU99A | 0.588 | 0.552 | 0.47 | 0.433 | 0.457 | 0.478 | 0.539 | 0.568 | 0.475 | 0.829 | 0.828 | 0.77 | 0.65 | 0.633 | 0.339 | 0.335 | 0.366 | 0.25 | 0.34
NCI-H1355 | 0.761 | 0.777 | 0.787 | 0.783 | 0.345 | 0.374 | 0.37 | 0.339 | 0.305 | 0.769 | 0.812 | 0.962 | 0.713 | 0.641 | 0.302 | 0.43 | 0.425 | 0.244 | 0.453
HCC-78 | 0.486 | 0.557 | 0.362 | 0.421 | 0.547 | 0.496 | 0.57 | 0.345 | 0.417 | 0.471 | 0.493 | 0.517 | 0.351 | 0.349 | 0.218 | 0.186 | 0.184 | 0.182 | 0.214
NCI-H1563 | 0.469 | 0.467 | 0.441 | 0.421 | – | – | – | – | – | 0.89 | 0.875 | 0.908 | 0.765 | 0.652 | 0.617 | 0.575 | 0.646 | 0.677 | 0.673
HCC-15 | 0.632 | 0.706 | 0.654 | 0.44 | 0.356 | 0.348 | 0.33 | 0.271 | 0.273 | 0.989 | 0.882 | 1.01 | 0.853 | 0.988 | 0.642 | 0.651 | 0.766 | 0.641 | 0.849
EKVX | 0.571 | 0.52 | 0.474 | 0.526 | 0.293 | 0.291 | 0.286 | 0.242 | 0.203 | 0.746 | 0.654 | 0.921 | 0.542 | 0.614 | 0.378 | 0.326 | 0.441 | 0.235 | 0.467
NCI-H2087 | 0.7 | 0.75 | 0.941 | 0.617 | 0.176 | 0.162 | 0.133 | 0.132 | 0.183 | 1.07 | 0.972 | 1.12 | – | 1.08 | 0.758 | 0.723 | 0.91 | 0.611 | 0.889
LK-2 | 0.35 | 0.341 | 0.261 | 0.324 | 0.616 | 0.649 | 0.782 | 0.623 | 0.564 | 1.3 | 1.08 | 1.22 | 0.822 | 0.948 | 0.574 | – | 0.657 | 0.515 | 0.677
NCI-H1437 | 0.48 | 0.454 | 0.492 | 0.384 | 0.506 | 0.451 | 0.473 | 0.298 | 0.282 | 1.2 | 1.33 | 1.31 | 1.13 | 0.923 | 0.471 | 0.326 | 0.473 | 0.319 | 0.392
